This passage reports destruction rate results from patent US6774133B2, “Substituted spiroheterocyclic 1H-3-aryl-pyrrolidine-2,4-dione derivatives, processes for their preparation, and their use as pesticides” (Bayer Aktiengesellschaft, priority 1993, dated 2004).

In the assay the test system is green peach apid (Myzus persicae). Kind of assay: Myzus test (cabbage leaves dipped). Format: in vivo. The conditions noted are these: after 6 days; active compound concentration 0.1%. As for the experimental part:
Solvent: 7 parts by weight of dimethylformamide
Emulsifier: 1 part by weight of alkylaryl polyglycol ether
To produce a suitable preparation of active compound, 1 part by weight of active compound is mixed with the stated amount of solvent and the stated amount of emulsifier, and the concentrate is diluted with water to the desired concentration.
Cabbage leaves (Brassica oleracea) which are severely infested with the green peach apid (Myzus persicae) are treated by being dipped into the preparation of active compound of the desired concentration.
After the specified periods of time, the destruction in % is determined. 100% means that all the aphids have been killed; 0% means that none of the aphids have been killed.

Take `Cc1cc(C)c(C2=C(O)C3(CCCCC3)NC2=O)c(C)c1` [(A)]: the destruction rate entry is “no destruction”.
In the case of `CC(C)C(=O)OC1=C(c2ccc(Cl)cc2Cl)C(=O)NC12CCCCC2` [(B)] it was 20%.
